The record followed here is US20260199485A1, “RNA DEGRADERS AND USES THEREOF” (Arrakis Therapeutics, Inc., priority 2022, published 2026).

Bounds are passed on as bounds.

The test concerns the target T1, CNOT7 (Homo sapiens, UniProt Q9UIV1).
T1 construct: biotin (biotinylated); purchased Ichor Life Sciences
The test can be described thus: Binding of compounds to CNOT7 by surface plasmon resonance (SPR). The method, then: Surface plasmon resonance (SPR) was used to evaluate the binding of compounds to CNOT7. Experiments were performed on a Biacore 8K (Cytiva) with a running buffer consisting of 20 mM HEPES pH7.5, 100 mM KCl, 3 mM MgCl2, 1 mM TCEP, 0.05% tween-20, 2% DMSO. Briefly, biotinylated CNOT7 (Ichor Life Sciences) at a concentration of 70 μg/ml was immobilized to a streptavidin coated chip (Cytiva sensor chip SA) for 1200 sec at a flow rate of 5 μl/min (typical immobilization level 7,500 RU). For compound binding experiments, various concentrations of analyte were flowed over the chip with 120 sec association phase, 120 sec dissociation phase, at a flow rate of 30 ul/min and collection rate of 10 Hz. Reference channel subtraction and solvent correction were applied to all sensograms prior to data analysis. Sensograms were fit to 1:1 steady state affinity model. FIGS. 3 and 4 show the binding of exemplary compounds and the AMP control (a known CNOT7 active site binder) at various concentrations to CNOT7.
In general terms: In SPR one partner is held on a chip, and binding of the other changes the refractive index at the surface.

Where [1] appears, read: Table 5, dissociation constant for CNOT7 by SPR.
Setting [2] is: Table 4, dissociation constant for CNOT7.
The mark [3] stands for this setting: Table 6, dissociation constant for CNOT7 by SPR.

T1 sequence (Q9UIV1 whole entry): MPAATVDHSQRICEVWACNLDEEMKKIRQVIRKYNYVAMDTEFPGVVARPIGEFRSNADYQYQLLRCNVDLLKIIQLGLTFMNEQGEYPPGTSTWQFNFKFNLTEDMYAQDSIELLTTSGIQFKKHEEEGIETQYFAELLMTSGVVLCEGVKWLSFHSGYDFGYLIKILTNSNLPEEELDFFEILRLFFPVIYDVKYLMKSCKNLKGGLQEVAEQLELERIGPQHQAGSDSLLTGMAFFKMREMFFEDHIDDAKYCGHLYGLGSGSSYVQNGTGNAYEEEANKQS

The Kd is the equilibrium constant for the complex coming apart. `COc1ccc(C(C)NC(=O)C2CC2c2nc(=O)[nH]cc2C)cc1` (mixture of isomers) [Compound I-239] yielded an equilibrium dissociation constant (Kd) under setting [1] of more than 25 µM.

As to `COc1ccc(C(C)NC(=O)C2CC2c2nc(=O)[nH]cc2C)cc1` (mixture of isomers) [Compound I-240], under setting [1], the Kd was more than 25 µM.

`O=C(CSc1cc[nH]c(=O)n1)NCc1ccc2c(c1)OCO2` [Compound I-2] came in with a Kd under setting [2] of more than 25 µM.

`COc1cccc(CNC(=O)CSc2nc(=O)[nH]cc2C)c1` [Compound I-5] displayed a Kd under setting [2] of more than 25 µM.

As to `Cc1c[nH]c(=O)nc1SCC(=O)N(C)Cc1ccc2c(c1)OCO2` [Compound I-6], the equilibrium dissociation constant (Kd) under setting [2] is more than 25 µM.

Under setting [1], `COc1ccc([C@H](C)NC(=O)CSc2nc(=O)[nH]cc2C)cc1` [Compound I-26] had a Kd of more than 25 µM.

Under setting [1], `COc1ccc([C@@H](C)NC(=O)CSc2nc(=O)[nH]cc2C)cc1` [Compound I-27] had a dissociation constant (Kd) of 1 to 25 µM.

Take `COc1ccc(C(C)NC(=O)CSc2nc(=O)[nH]cc2C)cc1` (centres unmarked) [Compound I-28]: the equilibrium dissociation constant (Kd) under setting [1] fell in the range of 1 to 25 µM.

`COc1ccc(CNC(=O)COc2nc(=O)[nH]cc2C)cc1` [Compound I-31] returned a Kd under setting [1] of more than 25 µM.

`COc1ccc(CNC(=O)CNc2nc(=O)[nH]cc2C)cc1` [Compound I-32]: the Kd under setting [1] is more than 25 µM.

`COc1ccc(CNC(=O)CCc2nc(=O)[nH]cc2C)cc1` [Compound I-34] came in with a dissociation constant (Kd) under setting [1] of 1 to 25 µM.

The compound `COc1ccc(CNC(=O)CSc2nc(=O)[nH]cc2C)nc1` [Compound I-42] registered a Kd under setting [1] of 1 to 25 µM.

In turn, `COc1ccc(CNC(=O)CSc2nc(=O)[nH]cc2C)cn1` [Compound I-43] displayed a Kd under setting [1] of more than 25 µM.

On to `COc1cnc(CNC(=O)CSc2nc(=O)[nH]cc2C)nc1` [Compound I-44], for which the dissociation constant Kd under setting [1] fell in the range of 1 to 25 µM.

Under setting [3], `COc1cnc(CNC(=O)CSc2nc(=O)[nH]cc2C)cn1` [Compound I-45] returned a Kd of 1 to 25 µM.

`COc1ccc(C(CO)NC(=O)CSc2nc(=O)[nH]cc2C)cc1` (centres unmarked) [Compound I-46] showed a Kd under setting [1] of 1 to 25 µM.

Under setting [1], `COc1ccc([C@@H](CO)NC(=O)CSc2nc(=O)[nH]cc2C)cc1` [Compound I-48] returned a dissociation constant Kd of 1 to 25 µM.

`Cc1c[nH]c(=O)nc1SCC(=O)NCc1ccc2c(c1)OCCO2` [Compound I-50] yielded a Kd under setting [1] of 1 to 25 µM.

The compound `Cc1c[nH]c(=O)nc1SCC(=O)NCc1ccc2oc(=O)[nH]c2c1` [Compound I-51] displayed a dissociation constant Kd under setting [1] of more than 25 µM.

Take `Cc1c[nH]c(=O)cc1SCC(=O)NCc1ccc2c(c1)NC(=O)CO2` [Compound I-52]: under setting [1], the equilibrium dissociation constant (Kd) is more than 25 µM.

For the compound `Cc1c[nH]c(=O)nc1SCC(=O)NCc1ccc2c(c1)NCCO2` [Compound I-54], the Kd under setting [1] is more than 25 µM.

In turn, `Cc1c[nH]c(=O)nc1SCC(=O)NCc1ccc2c(c1)N(C)CCO2` [Compound I-55] registered an equilibrium dissociation constant (Kd) under setting [1] of more than 25 µM.

Compound `Cc1c[nH]c(=O)nc1SCC(=O)NCc1ccc2c(c1)CC(=O)N2` [Compound I-56] returned a Kd under setting [1] of 1 to 25 µM.

`Cc1c[nH]c(=O)nc1SCC(=O)NCc1ccc2c(c1)NC(=O)C2` [Compound I-57]: the Kd under setting [1] was in the range of 1 to 25 µM.

Compound `Cc1c[nH]c(=O)nc1SCC(=O)NCc1ccc2c(c1)COC2` [Compound I-58] showed a Kd under setting [3] of more than 25 µM.

Take `COCCOCCC(Sc1nc(=O)[nH]cc1C)C(=O)NCc1ccc(OC)cc1` (centres unmarked) [Compound I-165, 4-(2-methoxyethoxy)-N-[(4-methoxyphenyl)methyl]-2-[(5-methyl-2-oxo-1H-pyrimidin-4-yl)sulfanyl]butanamide]: the Kd under setting [1] fell in the range of 1 to 25 µM.

`COCCOCC[C@@H](Sc1nc(=O)[nH]cc1C)C(=O)NCc1ccc(OC)cc1` [Compound I-166, (2R)-4-(2-methoxyethoxy)-N-[(4-methoxyphenyl)methyl]-2-[(5-methyl-2-oxo-1H-pyrimidin-4-yl)sulfanyl]butanamide] registered a dissociation constant Kd under setting [1] of 1 to 25 µM.

Take `COCCOCC[C@H](Sc1nc(=O)[nH]cc1C)C(=O)NCc1ccc(OC)cc1` [Compound I-167, (2S)-4-(2-methoxyethoxy)-N-[(4-methoxyphenyl)methyl]-2-[(5-methyl-2-oxo-1H-pyrimidin-4-yl)sulfanyl]butanamide]: under setting [1], the equilibrium dissociation constant (Kd) fell in the range of 1 to 25 µM.

`COc1ccc(CNC(=O)C(C)Sc2nc(=O)[nH]cc2C)cc1` (centres unmarked) [Compound I-168]: the equilibrium dissociation constant (Kd) under setting [1] lay in the range of 1 to 25 µM.

Consider `COCC(Sc1nc(=O)[nH]cc1C)C(=O)NCc1ccc(OC)cc1` (centres unmarked) [Compound I-169], for which the dissociation constant (Kd) under setting [1] is 1 to 25 µM.

`CCC(Sc1nc(=O)[nH]cc1C)C(=O)NCc1ccc(OC)cc1` (centres unmarked) [Compound I-170] showed a Kd under setting [1] of 1 to 25 µM.

`COCCOC[C@@H](Sc1nc(=O)[nH]cc1C)C(=O)N[C@H](C)c1ccc(OC)cc1` [Compound I-172]: under setting [3], the Kd was in the range of 1 to 25 µM.

Under setting [3], `COCCOC[C@H](Sc1nc(=O)[nH]cc1C)C(=O)N[C@H](C)c1ccc(OC)cc1` [Compound I-173] had a Kd of 1 to 25 µM.

With `Cc1c[nH]c(=O)nc1SCC(=O)N[C@H](C)c1ccc2c(c1)CC(=O)N2` [Compound I-190], the Kd under setting [3] fell in the range of 1 to 25 µM.

For the compound `COCC(Sc1nc(=O)[nH]cc1C)C(=O)NCc1ccc2c(c1)CC(=O)N2` (centres unmarked) [Compound I-191], under setting [1], the Kd was 0.1 to 1 µM.

In turn, `COCC(Sc1nc(=O)[nH]cc1C)C(=O)NC(C)c1ccc2c(c1)CC(=O)N2` (centres unmarked) [Compound I-192] returned a dissociation constant (Kd) under setting [1] of 1 to 25 µM.

`COC[C@H](Sc1nc(=O)[nH]cc1C)C(=O)N[C@H](C)c1ccc2c(c1)CC(=O)N2` [Compound I-193] returned an equilibrium dissociation constant (Kd) under setting [1] of 1 to 25 µM.

Turning to `COc1ccc(C2(NC(=O)CSc3nc(=O)[nH]cc3C)CC2)cc1` [Compound I-197], the Kd under setting [1] fell in the range of 1 to 25 µM.

Turning to `COc1ccc2c(c1)CCN(C(=O)CSc1nc(=O)[nH]cc1C)[C@@H]2C` [Compound I-199], under setting [3], the dissociation constant (Kd) lay within 0.1 to 1 µM.

Take `C#CCOCCOCCOCCOC[C@@H]1Cc2cc(OC)ccc2CN1C(=O)CSc1nc(=O)[nH]cc1C` [Compound I-203]: the Kd under setting [3] lay in the range of 1 to 25 µM.

Regarding `COc1ccc2c(c1)CN(C(=O)CSc1nc(=O)[nH]cc1C)C2` [Compound I-205], under setting [1], the dissociation constant (Kd) is more than 25 µM.

The compound `CC[C@@H](NC(=O)CSc1nc(=O)[nH]cc1C)c1ccc(OC)cc1` [Compound I-217] registered a dissociation constant Kd under setting [1] of 1 to 25 µM.

Turning to `COc1ccc([C@H](NC(=O)CSc2nc(=O)[nH]cc2C)C(C)C)cc1` [Compound I-218], the Kd under setting [1] was in the range of 1 to 25 µM.

Under setting [1], `Cc1c[nH]c(=O)nc1SCC(=O)N[C@@H](c1ccc(O)cc1)C1CC1` [Compound I-219] showed an equilibrium dissociation constant (Kd) of 1 to 25 µM.

In turn, `COc1ccc([C@H](NC(=O)CSc2nc(=O)[nH]cc2C)C(F)(F)F)cc1` [Compound I-221] came in with a Kd under setting [1] of 1 to 25 µM.

`COc1ccc(C(C)NC(=O)CSc2nc(=O)[nH]cc2C2CC2)cc1` (centres unmarked) [Compound I-225] came in with a Kd under setting [1] of more than 25 µM.

The compound `CCc1c[nH]c(=O)nc1SCC(=O)N[C@H](C)c1ccc(OC)cc1` [Compound I-226] showed a Kd under setting [1] of 1 to 25 µM.

Take `COc1ccc([C@@H](C)NC(=O)CSc2nc(=O)[nH]cc2F)cc1` [Compound I-228]: the dissociation constant Kd under setting [1] lay within 1 to 25 µM.

Under setting [3], `COc1ccc([C@@H](C)NC(=O)CSc2nc(=O)[nH]cc2Cl)cc1` [Compound I-229] returned a dissociation constant (Kd) of 1 to 25 µM.

Compound `COc1ccc(C(C)NC(=O)CSc2nc(=O)[nH]cc2OC)cc1` (centres unmarked) [Compound I-230] displayed a Kd under setting [1] of more than 25 µM.

In the case of `COc1ccc(C(C)NC(=O)C2CC2c2nc(=O)[nH]cc2C)cc1` (centres unmarked) [Compound I-238], the Kd under setting [1] is more than 25 µM.

`COc1ccc([C@@H](C)NC(=O)CSc2[nH]c(=O)[nH]c(=O)c2C)cc1` [Compound I-242]: the Kd under setting [1] is more than 25 µM.

`COc1ccc(C(C)NC(=O)CSc2nc(=O)[nH]cc2C)cc1F` (centres unmarked) [Compound I-244]: under setting [3], the Kd was 1 to 25 µM.

Consider `COc1ccc([C@@H](C)NC(=O)CSc2nc(=O)[nH]cc2C)cc1` [Compound I-247], for which the dissociation constant (Kd) under setting [1] fell in the range of 1 to 25 µM.

The compound `COc1ccc([C@@H](C)NC(=O)CSc2nc(=O)[nH]cc2C)c(C)c1` [Compound I-248] came in with a Kd under setting [3] of 0.1 to 1 µM.

For the compound `COc1ccc(C(C)(C)NC(=O)CSc2nc(=O)[nH]cc2C)cc1` [Compound I-249], under setting [1], the Kd fell in the range of 1 to 25 µM.

As to `COc1ccc([C@](C)(CO)NC(=O)CSc2nc(=O)[nH]cc2C)cc1` [Compound I-250], the Kd under setting [3] is 1 to 25 µM.

Under setting [1], `COc1ccc(CN2CCC(Sc3nc(=O)[nH]cc3C)C2=O)cc1` (centres unmarked) [Compound I-252] yielded a Kd of more than 25 µM.

Consider `COc1ccc(CN2CC[C@H](Sc3nc(=O)[nH]cc3C)C2=O)cc1` [Compound I-254], for which, under setting [1], the Kd is more than 25 µM.

`COc1ccc([C@@H](C)NC(=O)[C@@H](CCOCCOCCOCCN=[N+]=[N-])Sc2cc[nH]c(=O)n2)cc1` [Compound I-261]: the equilibrium dissociation constant (Kd) under setting [3] fell in the range of 1 to 25 µM.

On to `COCC(Sc1nc(=O)[nH]cc1C)C(=O)NC(C)c1ccc(OC)cc1` (centres unmarked) [Compound I-266], for which, under setting [1], the Kd was 1 to 25 µM.

Regarding `COCC(Sc1nc(=O)[nH]cc1C)C(=O)NC(C)c1ccc(OC)cc1` (centres unmarked) [Compound I-267], the Kd under setting [1] lay in the range of 1 to 25 µM.

For the compound `CCOc1ccc([C@@H](C)NC(=O)CSc2nc(=O)[nH]cc2C)cc1` [Compound I-277], under setting [1], the Kd was 1 to 25 µM.

`COc1ccc([C@@H](C)NC(=O)CSc2cc(=O)[nH]cc2C)nc1` [Compound I-281]: the dissociation constant Kd under setting [3] lay within 1 to 25 µM.

Under setting [1], `COc1ccc(CN(CCO)C(=O)CSc2cc(=O)[nH]cc2C)cc1` [Compound I-287] came in with a Kd of more than 25 µM.

In the case of `Cc1c[nH]c(=O)nc1SCC(=O)NC(C)c1ccc(S(C)(=O)=O)cc1` (centres unmarked) [Compound I-294], under setting [1], the Kd fell in the range of 1 to 25 µM.

For the compound `COc1ccc([C@@H](C)NC(=O)CSc2nc(=O)[nH]cc2Cl)cc1F` [Compound I-306], the dissociation constant (Kd) under setting [1] was 1 to 25 µM.

`COc1ccc(C2(NC(=O)CSc3nc(=O)[nH]cc3Cl)CC2)cc1F` [Compound I-307]: the dissociation constant (Kd) under setting [1] fell in the range of 0.1 to 1 µM.
